Patent EP4810494A1, “HPK1 DEGRADATION AGENT AND USE THEREOF IN FIELD OF MEDICINE” (Haisco Pharmaceutical Group Co., Ltd., priority 2023, dated 2025)
pIC50: −log10 of the molar value. Structures can show the parent of a compound that is named as a salt.

system: not listed separately; experiment: Pharmacokinetic test in mice; assay type: in vivo, ICR mice; details: mouse, plasma, IV, 1 mg/kg
Protocol: Test example 6: Pharmacokinetic test in mice
Experimental objective: In this experiment, a single dose of test substances was administered to ICR mice intravenously and intragastrically, the concentrations of the test compounds in plasma of mice were measured, and the pharmacokinetic characteristics and bioavailability of the test compounds in mice were evaluated.
Experimental animals: Male ICR mice, 20-35 g, purchased from Chengdu Dossy Experimental Animals Co., Ltd. (SCXK (CHUAN) 2020-030).
Experimental method: On the day of the experiment, the ICR mice were randomly grouped according to their body weights. The animals were fasted but with water available overnight before the administration, and fed 4 h after the administration.
Sampling: Blood was taken from the orbits of the mice at specified time points, and placed in an EDTAK2 centrifuge tube. Centrifugation was performed at 5000 rpm at 4°C for 10 min, and the plasma was collected.
Time points for plasma collection in G1 and G1-2 groups: 0, 5 min, 15 min, 30 min, 1 h, 2 h, 4 h, 7 h, and 24 h.
Time points for plasma collection in G2 and G2-2 groups: 0, 5 min, 15 min, 30 min, 1 h, 2 h, 4 h, 7 h, and 24 h.
Before analysis and detection, all the samples were stored at -60°C or lower. The samples were analysed quantitatively by LC-MS/MS. Table 6-1 PK data of test compound drug in mice

SMILES	clearance [mL/min/kg]	half-life [h]
N#Cc1ccn2c(-c3ccc(Nc4ccc(N5CCC6(CC5)CC(N5CCN7c8cc(F)c(N9CCC(=O)NC9=O)cc8CC[C@@H]7C5)C6)cn4)c4c3CNC4=O)cnc2c1 [Compound 48]	1.67	5.3

same assay, conditions: mouse, plasma, po, i. g., 10 mg/kg

SMILES	AUC [ng·h/mL]	Cmax [ng/mL]	half-life [h]
N#Cc1ccn2c(-c3ccc(Nc4ccc(N5CCC6(CC5)CC(N5CCN7c8cc(F)c(N9CCC(=O)NC9=O)cc8CC[C@@H]7C5)C6)cn4)c4c3CNC4=O)cnc2c1 [Compound 48]	25900	2300	4.9

target: T1, HPK1 protein (Homo sapiens, UniProt Q92918); experiment: Detection of HPK1 protein expression level in Jurkat cells (24 h); assay type: cell-based; details: 24 hours incubation
T1 construct: host or cells: Jurkat cells
T1 sequence (Q92918 whole entry): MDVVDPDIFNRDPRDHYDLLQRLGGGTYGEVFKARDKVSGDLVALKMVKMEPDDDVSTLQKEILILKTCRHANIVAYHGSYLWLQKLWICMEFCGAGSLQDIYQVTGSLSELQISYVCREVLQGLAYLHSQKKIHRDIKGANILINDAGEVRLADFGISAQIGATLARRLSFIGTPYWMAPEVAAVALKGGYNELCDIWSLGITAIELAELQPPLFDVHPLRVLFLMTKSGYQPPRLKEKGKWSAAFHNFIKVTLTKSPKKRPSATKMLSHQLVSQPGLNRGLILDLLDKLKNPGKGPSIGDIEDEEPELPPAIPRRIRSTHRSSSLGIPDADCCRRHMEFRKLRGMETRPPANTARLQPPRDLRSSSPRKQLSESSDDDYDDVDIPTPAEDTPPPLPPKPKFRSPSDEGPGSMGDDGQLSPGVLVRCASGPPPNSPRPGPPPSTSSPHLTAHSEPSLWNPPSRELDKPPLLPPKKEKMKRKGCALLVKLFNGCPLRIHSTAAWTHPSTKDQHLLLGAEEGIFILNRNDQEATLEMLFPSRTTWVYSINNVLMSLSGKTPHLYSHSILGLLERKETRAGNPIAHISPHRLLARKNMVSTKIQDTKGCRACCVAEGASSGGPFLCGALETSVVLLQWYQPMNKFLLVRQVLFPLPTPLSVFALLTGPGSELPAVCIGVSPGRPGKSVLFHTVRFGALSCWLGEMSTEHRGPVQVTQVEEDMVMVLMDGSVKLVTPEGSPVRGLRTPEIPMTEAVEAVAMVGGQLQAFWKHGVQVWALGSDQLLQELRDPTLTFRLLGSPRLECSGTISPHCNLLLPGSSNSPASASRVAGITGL
Protocol: Test example 4: Detection of HPK1 protein expression level in Jurkat cells (24 h)
Jurkat cells from ATCC were placed in a RPMI-1640 complete medium (supplemented with 10% FBS and 1% penicillin-streptomycin solution) and cultured at 37°C and 5% CO2. The cells in the logarithmic growth phase were collected, the cell density was adjusted to 5 × 10^5 cells/well with the culture medium, and the cells were added to a 6-well cell culture plate at a volume of 1 mL/well. The compound to be tested was prepared to 2-fold the final concentration, 1 mL of the compounds at different concentrations were added to administration wells, a medium containing 0.2% DMSO was added to control wells, and the plate was incubated at 37°C and 5% CO2 for 24 hours. The cells were collected into a 1.5 mL centrifuge tube, 30 µL of RIPA lysis buffer (containing 1X protease inhibitor cocktail) was added, and the cells were lysed on ice for 15 minutes and centrifuged at 12000 rpm/min at 4°C for 10 minutes. The supernatant was collected and the protein content was determined using the BCA method. The protein sample to be tested was diluted to 0.2 mg/mL, HPK1 was detected using a fully automated protein expression quantitative analyser (ProteinSimple), and the internal reference protein was β-actin (all antibodies were from CST). The software (Compass for SW) of the fully automated protein expression quantitative analyser was used to process the raw data and calculate the peak area after internal reference normalisation and the HPK1 degradation rate relative to the control group. The HPK1 degradation rate was calculated according to formula 4-1, where Aadministration well is the relative peak area of the administration group after internal reference normalisation, and Acontrol well is the relative peak area of the vehicle control group after internal reference normalisation. DC50 values were calculated using a four-parameter non-linear fitting model in Graphpad 8.3.0 software. HPK1_degradation % = 100−(Aadministration well/Acontrol well×100%) [formula] Table 4-1 Degradation activity of test compounds against HPK1 protein in Jurkat cells (24 h)

SMILES	DC50 [nM]
O=C1CC[C@H](NC(=O)c2cc3c(cc2F)N2CCN(C4CCN(c5ccc(Nc6ccc(-c7cnc8cc(F)ccn78)c7c6C(=O)NC7)nc5)CC4)C[C@H]2CC3)C(=O)N1 [Trifluoroacetic acid salt of compound 42]	< 20
O=C1CC[C@H](NC(=O)c2cc3c(cc2F)N2CCN(C4CC5(CCN(c6ccc(Nc7ccc(-c8cnc9cc(F)ccn89)c8c7C(=O)NC8)nc6)CC5)C4)C[C@H]2CC3)C(=O)N1 [Trifluoroacetic acid salt of compound 37]	< 20

target: T2, HPK1 kinase (Homo sapiens, UniProt Q92918); experiment: HPK1 kinase assay (1 mM ATP); assay type: biochemical; details: not given
T2 construct: purchased Carna 07-410
T2 sequence (Q92918 1-346 limits assumed): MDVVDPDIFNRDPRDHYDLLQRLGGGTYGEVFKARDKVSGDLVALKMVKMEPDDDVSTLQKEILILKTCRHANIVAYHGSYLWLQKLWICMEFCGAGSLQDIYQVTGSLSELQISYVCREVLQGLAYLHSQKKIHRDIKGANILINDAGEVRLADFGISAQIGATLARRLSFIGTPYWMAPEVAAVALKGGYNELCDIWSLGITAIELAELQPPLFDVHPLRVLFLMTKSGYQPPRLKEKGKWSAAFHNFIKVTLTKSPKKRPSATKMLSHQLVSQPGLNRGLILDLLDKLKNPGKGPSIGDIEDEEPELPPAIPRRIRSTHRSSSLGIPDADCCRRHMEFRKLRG
Protocol: Test example 5: HPK1 kinase assay (1 mM ATP)
The kinase HPK1 (Carna, Cat.No 07-410) was prepared into 2× kinase solution using 1× kinase buffer. The substrate Fluorescein-PKC (Invitrogen, Cat. No. PV3506) and ATP (working concentration: 1 mM) (Sigma, Cat. No. 2383-5G) were prepared into 2× substrate solution using 1×kinase buffer. The detection reagent was diluted to 2-fold the final concentration using an antibody diluent. 100 nL of compounds at different concentrations and 5 µL of kinase solution were added to each well of a 384-well plate, and the mixture was incubated at room temperature for 10 minutes. After the incubation was completed, 5 µL of substrate solution was added to each well, and the resulting mixture was reacted at room temperature for 90 minutes. After the reaction was completed, 10 µL of detection reagent was added to each well to terminate the reaction, and the mixture was incubated at room temperature for 60 minutes. Fluorescence readings were detected using an Envision instrument with excitation at 320 nm and emission at 520 nm and 495 nm. IC50 value was calculated using XLFit excel add-in version 5.4.0.8 software. The calculation formula of the inhibition rate was shown in formula 5-1, wherein max is the Ratio of the DMSO control, min is the Ratio of the negative control without enzyme, and sample is the Ratio of the compound. Ratio = RFU520nm /RFU495nm [formula] Inhibition% = (max−sample)/(max−min) × 100% [formula] Table 5-1 Inhibitory activity of test compounds against HPK1 kinase

SMILES	pIC50
CN(C)Cc1nc(Nc2ccc(-c3cnc4cc(F)ccn34)c3c2C(=O)NC3)ccc1N1CCC(CN2CCN(c3ccc(N4CCC(=O)NC4=O)c(F)c3)CC2)CC1 [Trifluoroacetic acid salt of compound 12]	> 7.30
O=C1CCC(c2ccc(N3CCC(CN4CCC(c5ccc(Nc6ccc(-c7cnc8cc(F)ccn78)c7c6C(=O)NC7)nc5)CC4)CC3)cc2F)C(=O)N1 (stereo not shown) [Trifluoroacetic acid salt of compound 17]	> 7.30
O=C1CC[C@H](NC(=O)c2cc3c(cc2F)N2CCN(C4CCN(c5ccc(Nc6ccc(-c7cnc8cc(F)ccn78)c7c6C(=O)NC7)nc5)CC4)C[C@H]2CC3)C(=O)N1 [Trifluoroacetic acid salt of compound 42]	> 7.30
O=C1CCN(c2cc3c(cc2F)N2CCN(CC4CN(c5ccc(Nc6ccc(-c7cnc8cc(F)ccn78)c7c6C(=O)NC7)nc5)C4)C[C@H]2CC3)C(=O)N1 [Trifluoroacetic acid salt of compound 21]	> 7.30
O=C1CCN(c2ccc(N3CCC(CN4CCC(c5ccc(Nc6ccc(-c7cnc8cc(F)ccn78)c7c6C(=O)NC7)nc5)CC4)CC3)cc2F)C(=O)N1 [Trifluoroacetic acid salt of compound 18]	> 7.30
N#Cc1ccn2c(-c3ccc(Nc4ccc(N5CCC(N6CCN7c8cc(F)c(N9CCC(=O)NC9=O)cc8CC[C@H]7C6)CC5)cn4)c4c3CNC4=O)cnc2c1 [Trifluoroacetic acid salt of compound 45]	> 7.30
O=C1CCN(c2cc3c(cc2F)N2CCN(CC4CN(c5ccc(Nc6ccc(-c7cnc8cc(F)ccn78)c7c6C(=O)NC7)nc5)C4)C[C@@H]2CC3)C(=O)N1 [Trifluoroacetic acid salt of compound 22]	> 7.30

same assay, conditions: ATP working concentration: 1 mM

SMILES	pIC50
O=C1CCN(c2cc3c(cc2F)N2CCN(C4CCC5(CC4)CCN(c4ccc(Nc6ccc(-c7cnc8cc(F)ccn78)c7c6C(=O)NC7)nc4)CC5)C[C@H]2CC3)C(=O)N1 [Trifluoroacetic acid salt of compound 44]	> 7.30
O=C1CCN(c2cc3c(cc2F)N2CCN(C4CCC5(CC4)CCN(c4ccc(Nc6ccc(-c7cnc8cc(F)ccn78)c7c6C(=O)NC7)nc4)CC5)C[C@@H]2CC3)C(=O)N1 [Trifluoroacetic acid salt of compound 47]	> 7.30
O=C1CC[C@H](NC(=O)c2cc3c(cc2F)N2CCN(C4CC5(CCN(c6ccc(Nc7ccc(-c8cnc9cc(F)ccn89)c8c7C(=O)NC8)nc6)CC5)C4)C[C@@H]2CC3)C(=O)N1 [Trifluoroacetic acid salt of compound 33]	> 7.30
O=C1CC[C@H](NC(=O)c2cc3c(cc2F)N2CCN(C4CC5(CCN(c6ccc(Nc7ccc(-c8cnc9cc(F)ccn89)c8c7C(=O)NC8)nc6)CC5)C4)C[C@H]2CC3)C(=O)N1 [Trifluoroacetic acid salt of compound 37]	> 7.30
O=C1CCN(c2cc3c(cc2F)N2CCN(CC4CCN(c5ccc(Nc6ccc(-c7cnc8cc(F)ccn78)c7c6C(=O)NC7)nc5CN5CC[C@@H](F)C5)CC4)C[C@H]2CC3)C(=O)N1 [Trifluoroacetic acid salt of compound 30]	> 7.30
CN(C)Cc1nc(Nc2ccc(-c3cnc4cc(F)ccn34)c3c2C(=O)NC3)ccc1N1CCC(CN2CCN3c4cc(F)c(N5CCC(=O)NC5=O)cc4CC[C@@H]3C2)CC1 [Trifluoroacetic acid salt of compound 11]	> 7.30
O=C1CCN(c2cc3c(cc2F)N2CCN(CC4CCN(c5ccc(Nc6ccc(-c7cnc8cc(F)ccn78)c7c6C(=O)NC7)nc5CN5CC(F)(F)C5)CC4)C[C@@H]2CC3)C(=O)N1 [Trifluoroacetic acid salt of compound 24]	> 7.30
O=C1CCN(c2cc3c(cc2F)N2CCN(CC4CCN(c5ccc(Nc6ccc(-c7cnc8cc(F)ccn78)c7c6C(=O)NC7)nc5CN5CC[C@H](F)C5)CC4)C[C@H]2CC3)C(=O)N1 [Trifluoroacetic acid salt of compound 29]	> 7.30
CN(C)Cc1nc(Nc2ccc(-c3cnc4cc(F)ccn34)c3c2C(=O)NC3)ccc1N1CCC(CN2CCN3c4cc(F)c(N5CCC(=O)NC5=O)cc4CC[C@H]3C2)CC1 [Trifluoroacetic acid salt of compound 10]	> 7.30
N#Cc1ccn2c(-c3ccc(Nc4ccc(N5CCC6(CC5)CC(N5CCN7c8cc(F)c(N9CCC(=O)NC9=O)cc8CC[C@H]7C5)C6)cn4)c4c3CNC4=O)cnc2c1 [Trifluoroacetic acid salt of compound 43]	> 7.30
N#Cc1ccn2c(-c3ccc(Nc4ccc(N5CCC6(CC5)CC(N5CCN7c8cc(F)c(N9CCC(=O)NC9=O)cc8CC[C@@H]7C5)C6)cn4)c4c3CNC4=O)cnc2c1 [Compound 48]	> 7.30
O=C1CCN(c2cc3c(cc2F)N2CCN(CC4CCN(c5ccc(Nc6ccc(-c7cnc8cc(F)ccn78)c7c6C(=O)NC7)nc5CN5CCC(F)(F)C5)CC4)CC2CC3)C(=O)N1 (stereo not shown) [Trifluoroacetic acid salt of compound 25]	> 7.30
O=C1CCN(c2cc3c(cc2F)N2CCN(CC4CCN(c5ccc(Nc6ccc(-c7cnc8cc(F)ccn78)c7c6C(=O)NC7)nc5CN5CCC(F)(F)C5)CC4)C[C@H]2CC3)C(=O)N1 [Trifluoroacetic acid salt of compound 28]	> 7.30
O=C1CCN(c2cc3c(cc2F)N2CCN(CC4CCN(c5ccc(Nc6ccc(-c7cnc8cc(F)ccn78)c7c6C(=O)NC7)nc5CN5CC(F)(F)C5)CC4)C[C@H]2CC3)C(=O)N1 [Trifluoroacetic acid salt of compound 23]	> 7.30
N#Cc1ccn2c(-c3ccc(Nc4ccc(N5CCC6(CCC(N7CCN8c9cc(F)c(N%10CCC(=O)NC%10=O)cc9CC[C@@H]8C7)CC6)CC5)cn4)c4c3CNC4=O)cnc2c1 [Trifluoroacetic acid salt of compound 46]	> 7.30

same assay, conditions: ATP working concentration: 1 mM; read-out: IC50

SMILES	pIC50
O=C1CCC(c2ccc(N3CCN(CC4CCN(c5ccc(Nc6ccc(-c7cnc8cc(F)ccn78)c7c6C(=O)NC7)nc5)CC4)CC3)cc2F)C(=O)N1 (single isomer, unassigned) [Compound 1-2]	> 7.30
CN(C)Cc1nc(Nc2ccc(-c3cnc4cc(F)ccn34)c3c2C(=O)NC3)ccc1C1CCN(CC2(F)CCN(c3ccc(N4CCC(=O)NC4=O)c(F)c3)CC2)CC1 [Compound 38]	> 7.30
